Results as given in patent publication US20260285850A1, “SUBSTITUTED OXAZOLIDINONES AND IMIDAZOLINONES AS HERBICIDES” (FMC CORPORATION, priority 2023, published 2026).

What was measured:
Assay type in all cases: in vivo
[1] = tested on: sedge, umbrella (small-flower umbrella sedge, Cyperus difformis); experiment: Test B flooded paddy test, visual plant response rating 0-100; conditions: 250 g ai/ha, Flood, applied to paddy water, evaluated after 13 days
How it was run: (§1)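 Each species was raised to two leaves before flooding to a 3 cm depth and dosing the water with compound. Injury was assessed by eye after 13 days under greenhouse conditions.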

rice (Oryza sativa) = experiment: as above; conditions: 250 g ai/ha, Flood, applied to paddy water, evaluated after 13 days
How it was run: as §1

[2] = tested on: barnyardgrass (Echinochloa crusgalli); experiment: as above; conditions: 250 g ai/ha, Flood, applied to paddy water, evaluated after 13 days
How it was run: as §1

[3] = tested on: ducksalad (Heteranthera limosa); experiment: as above; conditions: 250 g ai/ha, Flood, applied to paddy water, evaluated after 13 days
How it was run: as §1

[4] = tested on: green foxtail (Setaria viridis); experiment: Test A preemergence soil spray, visual injury rating 0-100; conditions: 10 days
How it was run: (§2)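 Directed preemergence spray onto seeded soil or postemergence spray onto 2-10 cm plants (loam plus sand); compound carried in surfactant-containing non-phytotoxic solvent. Injury rated by eye after 10 d greenhouse growth; 0 = no effect, 100 = complete control.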

[5] = tested on: oat, wild (wild oat, Avena fatua); experiment: as above; conditions: 10 days
How it was run: as §2

kochia (Bassia scoparia) [6] = experiment: as above; conditions: 62 g ai/ha, 10 days, 0 = no effect, 100 = complete control
How it was run: as §2

[7] = tested on: ragweed (common ragweed, Ambrosia artemisiifolia); experiment: as above; conditions: 10 days
How it was run: as §2

corn (Zea mays) [8] = experiment: as above; conditions: 10 days
How it was run: as §2

[9] = tested on: palmer (palmer amaranth, palmer pigweed, Amaranthus palmeri); experiment: as above; conditions: 10 days
How it was run: as §2

[10] = tested on: wheat (Triticum aestivum); experiment: as above; conditions: 10 days
How it was run: as §2

[11] = tested on: ryegrass, Italian (italian ryegrass, Lolium multiflorum); experiment: as above; conditions: 10 days
How it was run: as §2

soybean (Glycine max) [12] = experiment: as above; conditions: 10 days
How it was run: as §2

[13] = tested on: blackgrass (Alopecurus myosuroides); experiment: as above; conditions: 10 days
How it was run: as §2

[14] = tested on: barnyardgrass (Echinochloa crus-galli); experiment: as above; conditions: 10 days
How it was run: as §2

[15] = tested on: green foxtail (Setaria viridis); experiment: Test A postemergence application, visual injury rating 0-100
How it was run: as §2

[16] = tested on: oat, wild (wild oat, Avena fatua); experiment: as above
How it was run: as §2

kochia (Bassia scoparia) [17] = experiment: as above
How it was run: as §2

[18] = tested on: ragweed (common ragweed, Ambrosia artemisiifolia); experiment: as above
How it was run: as §2

[19] = tested on: galium (catchweed bedstraw, Galium aparine); experiment: as above
How it was run: as §2

corn (Zea mays) [20] = experiment: as above
How it was run: as §2

[21] = tested on: palmer (palmer amaranth, palmer pigweed, Amaranthus palmeri); experiment: as above
How it was run: as §2

[22] = tested on: wheat (Triticum aestivum); experiment: as above
How it was run: as §2

[23] = tested on: ryegrass, Italian (italian ryegrass, Lolium multiflorum); experiment: as above
How it was run: as §2

soybean (Glycine max) [24] = experiment: as above
How it was run: as §2

[25] = tested on: blackgrass (Alopecurus myosuroides); experiment: as above
How it was run: as §2

[26] = tested on: barnyardgrass (Echinochloa crus-galli); experiment: as above
How it was run: as §2

[27] = tested on: horseweed (Erigeron canadensis); experiment: as above
How it was run: as §2

[28] = 62 g ai/ha, 0 = no effect, 100 = complete control
[29] = 62 g ai/ha, postemergence, 10 days, 0 = no effect, 100 = complete control
[30] = Postemergence, 16 g ai/ha, greenhouse 10 days, 0 no effect, 100 complete control

## COC(=O)C1C=CC(NC(=O)C2(C)CN(c3cc(C)cc(C)c3)C(=O)O2)C1 (stereo not drawn) [Compound 115]
[1]
  Plant response rating, Sedge, Umbrella (0 to 100 scale, 0 is no effect and 100 is complete control): 0
Rice (Oryza sativa)
  Plant response rating, Rice (0 to 100 scale, 0 is no effect and 100 is complete control): 25
[2]
  Plant response rating, Barnyardgrass (0 to 100 scale, 0 is no effect and 100 is complete control): 65
[3]
  Plant response rating, Ducksalad (0 to 100 scale, 0 is no effect and 100 is complete control): 80
[4]; 16 g ai/ha, 0 to 100 scale
  Foxtail, Green plant response rating: 0
[4]; [28]
  Foxtail, Green plant response rating (0-100): 30
[5]; 16 g ai/ha, 0 to 100 scale
  Oat, Wild plant response rating: 0
[5]; [28]
  Oat, Wild plant response rating (0-100): 40
Kochia (Bassia scoparia) [6]
  Kochia plant response rating (0-100): 100
[7]; 16 g ai/ha, 0 to 100 scale
  Ragweed plant response rating: 0
[7]; [28]
  Ragweed plant response rating (0-100): 0
Corn (Zea mays) [8]; 16 g ai/ha, 0 to 100 scale
  Corn plant response rating: 0
Corn (Zea mays) [8]; [28]
  Corn plant response rating (0-100): 20
[9]; 16 g ai/ha, 0 to 100 scale
  Pigweed, Palmer plant response rating: 20
[9]; [28]
  Pigweed, Palmer plant response rating (0-100): 90
[10]; 16 g ai/ha, 0 to 100 scale
  Wheat plant response rating: 0
[10]; [28]
  Wheat plant response rating (0-100): 30
[11]; 16 g ai/ha, 0 to 100 scale
  Ryegrass, Italian plant response rating: 10
[11]; [28]
  Ryegrass, Italian plant response rating (0-100): 30
Soybean (Glycine max) [12]; 16 g ai/ha, 0 to 100 scale
  Soybean plant response rating: 0
Soybean (Glycine max) [12]; [28]
  Soybean plant response rating (0-100): 0
[13]; 16 g ai/ha, 0 to 100 scale
  Blackgrass plant response rating: 20
[13]; [28]
  Blackgrass plant response rating (0-100): 60
[14]; 16 g ai/ha, 0 to 100 scale
  Barnyardgrass plant response rating: 30
[14]; [28]
  Barnyardgrass plant response rating (0-100): 100
[15]; [29]
  Foxtail, Green plant response rating (0-100): 30
[15]; [30]
  Foxtail, Green plant response rating (0 to 100 scale): 10
[16]; [29]
  Oat, Wild plant response rating (0-100): 90
[16]; [30]
  Oat, Wild plant response rating (0 to 100 scale): 80
Kochia (Bassia scoparia) [17]; [29]
  Kochia plant response rating (0-100): 70
Kochia (Bassia scoparia) [17]; [30]
  Kochia plant response rating (0 to 100 scale): 0
[18]; [29]
  Ragweed plant response rating (0-100): 30
[18]; [30]
  Ragweed plant response rating (0 to 100 scale): 0
[19]; [29]
  Galium plant response rating (0-100): 70
[19]; [30]
  Galium plant response rating (0 to 100 scale): 60
Corn (Zea mays) [20]; [29]
  Corn plant response rating (0-100): 100
Corn (Zea mays) [20]; [30]
  Corn plant response rating (0 to 100 scale): 60
[21]; [29]
  Pigweed, Palmer plant response rating (0-100): 10
[21]; [30]
  Pigweed, Palmer plant response rating (0 to 100 scale): 10
[22]; [29]
  Wheat plant response rating (0-100): 80
[22]; [30]
  Wheat plant response rating (0 to 100 scale): 30
[23]; [29]
  Ryegrass, Italian plant response rating (0-100): 70
[23]; [30]
  Ryegrass, Italian plant response rating (0 to 100 scale): 40
Soybean (Glycine max) [24]; [29]
  Soybean plant response rating (0-100): 60
Soybean (Glycine max) [24]; [30]
  Soybean plant response rating (0 to 100 scale): 40
[25]; [29]
  Blackgrass plant response rating (0-100): 90
[25]; [30]
  Blackgrass plant response rating (0 to 100 scale): 70
[26]; [29]
  Barnyardgrass plant response rating (0-100): 100
[26]; [30]
  Barnyardgrass plant response rating (0 to 100 scale): 70
[27]; [29]
  Horseweed plant response rating (0-100): 0
[27]; [30]
  Horseweed plant response rating (0 to 100 scale): 10
